Series [1] is described as follows: Ionisation constant, pKa corresponding to acid proton of […] benzimidazole ring. The format is physicochemical.
Series [2] can be described thus: Partition coefficient, log P of the compound. The format is physicochemical. As to conditions: octanol/water.
Series [3] can be described thus: Effective permeability by HPLC-based PAMPA. The format is ADME. To be noted: read-out: permeability. In general terms: PAMPA measures passive passage across an artificial lipid membrane.
Series [4] concerns Trypanosoma cruzi. Description: Inhibition of oxygen uptake in Trypanosoma cruzi MF epimastigotes at 300 uM by polarography. Type of series: functional.
In series [5] the test system is Trypanosoma cruzi. Kind of series: Antiparasitic activity against Trypanosoma cruzi MF epimastigotes after 7 days by nephelometry. Type of series: functional, organism-based. To be noted: 168 h.
Series [6] is described as follows: Effective permeability by UV-based PAMPA. The format is ADME. To be noted: read-out: permeability.
The nature of series [7]: Ionisation constant, pKa corresponding to weak base of […] benzimidazole ring. The format is physicochemical.
Series [8] can be described thus: Ionisation constant, pKa of the compound. The format is physicochemical.

With `O=[N+]([O-])c1ccccc1-c1nc2ccccc2[nH]1`, the values for the pKa in series [1] and in series [7] were 11.4 and 5.69, respectively. In series [2], the logP amounted to 2.2. Also, the figures for the Papp in series [3] and in series [6] were 8 ×10⁻⁶ cm/s and 12 ×10⁻⁶ cm/s, respectively. For the same compound, the inhibition at 300 µM in series [4] was determined as 40%. Besides, the IC50 in series [5] was found to be 117 µM.
In series [2], `O=C(c1ccccc1)n1c(-c2ccccc2[N+](=O)[O-])nc2ccccc21` came in with a logP of 3.1. The inhibition at 300 µM in series [4] is 20%. Further, the half-maximal inhibitory concentration (IC50) in series [5] was determined as 94 µM. The pKa in series [8] turned out to be 4.9.
Take `O=C(c1ccc([N+](=O)[O-])cc1)n1c(-c2ccccc2[N+](=O)[O-])nc2ccccc21`: the logP in series [2] was found to be 2.8. In series [5], this compound registered a concentration for half-maximal inhibition (IC50) of 80 µM. Moreover, the pKa in series [8] was found to be 4.79.
Compound `COc1ccc(C(=O)n2c(-c3ccccc3[N+](=O)[O-])nc3ccccc32)cc1` displayed a logP in series [2] of 3.2. Besides, in series [5], the IC50 amounted to 64 µM. For the same compound, the pKa in series [8] turned out to be 4.71.
`O=C(c1ccc(Cl)cc1)n1c(-c2ccccc2[N+](=O)[O-])nc2ccccc21` came in with a logP in series [2] of 3.6. In addition, it took 78 µM to reach half-maximal inhibition in series [5] (IC50). Further, in series [8], the pKa came out at 4.69.

By pKa is commonly meant the pH at which an ionisable group is half protonated. A lower pKa goes with a group that gives up its proton readily. As usually defined, the logP is the decadic logarithm of the partition coefficient of the neutral form, usually between octanol and water. Low values mean lower lipophilicity, high ones higher lipophilicity. For orientation: inhibition means the relative decrease from the control value, in per cent. A higher inhibition goes with a strong effect. As usually defined, the IC50 is the concentration needed to halve the response being measured. Read a high IC50 as weaker potency.
